Assay results published in patent publication US6403602B1 (priority 1997, dated 2002).
Structures can show the parent of a compound that is named as a salt. Where two headings read alike, the source gives them in different places.

Legend:
[1] = system: κ2 sites; assay type: binding, guinea pig
[2] = system: electrically stimulated guinea pig ileum; experiment: tissue or blood; assay type: cell-based
[3] = biological target: T1, delta receptors (Mus musculus, UniProt P32300); assay type: cell-based
T1 construct: The vas deferens from Swiss-Webster mice (30-35 g) were prepared as described by Hughes et al; from tissue; host or cells: mouse vas deferens (Swiss-Webster)

[4] = system: electrically stimulated mouse vas deferens; experiment: tissue or blood; assay type: cell-based
[5] = biological target: T2, delta receptors (Cavia porcellus, UniProt A0A286XTF2); experiment: biochemical; assay type: binding, guinea pig
T2 construct: The brains were then homogenized in 50 mM Tris HCl, buffer pH 7.7, using a Polytron; from tissue; host or cells: guinea pig brain homogenate (membrane pellet)

[6] = biological target: mu opioid receptors (Cavia porcellus, UniProt A0ACM8Q262); assay type: binding, guinea pig; conditions: read-out: Ki μ [^3H]DAMGO
[7] = system: mu receptors; assay type: cell-based, guinea pig
[8] = biological target: kappa3 receptors; assay type: binding, guinea pig; conditions: read-out: Ki κ3 [^3H]NalBzoH
[9] = biological target: T3, kappa1 sites (Cavia porcellus, UniProt P41144); experiment: biochemical; assay type: binding, guinea pig
T3 construct: The brains were then homogenized in 50 mM Tris HCl, buffer pH 7.7, using a Polytron; from tissue; host or cells: guinea pig brain homogenate (membrane pellet)

[10] = biological target: T4, kappa receptors (Cavia porcellus, UniProt P41144); assay type: cell-based, guinea pig
T4 construct: The longitudinal muscle with the myenteric plexus attached was gently separated from the underlying circular muscle; from tissue; host or cells: guinea pig ileum longitudinal muscle with myenteric plexus

[11] = read-out: Guinea Pig Ileum IC50
[12] = read-out: Mouse Vas Deferens IC50
[13] = read-out: Ki δ, experiment done with [^3H]DPDPE
[14] = read-out: IC50 (nM), Guinea Pigs Ileum
[15] = read-out: IC50 (nM), Mouse Vas Deferens
[16] = Cavia porcellus, read-out: Guinea Pig Ileum IC50 (nM)
[17] = Mus musculus, read-out: Mouse vas deferens maximum inhibition

T3 sequence (P41144 whole entry): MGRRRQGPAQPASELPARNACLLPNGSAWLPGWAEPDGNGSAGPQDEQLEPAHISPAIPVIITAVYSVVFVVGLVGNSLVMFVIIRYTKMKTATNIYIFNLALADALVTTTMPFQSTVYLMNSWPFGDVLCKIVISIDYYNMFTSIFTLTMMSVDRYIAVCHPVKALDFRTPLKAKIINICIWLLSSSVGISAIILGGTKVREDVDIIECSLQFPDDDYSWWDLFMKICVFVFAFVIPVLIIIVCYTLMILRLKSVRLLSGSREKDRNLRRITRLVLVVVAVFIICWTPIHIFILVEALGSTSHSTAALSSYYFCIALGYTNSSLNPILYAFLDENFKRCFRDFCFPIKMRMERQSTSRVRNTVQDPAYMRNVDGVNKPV
T4 sequence (P41144 whole entry): as above
T2 sequence (A0A286XTF2 1-366): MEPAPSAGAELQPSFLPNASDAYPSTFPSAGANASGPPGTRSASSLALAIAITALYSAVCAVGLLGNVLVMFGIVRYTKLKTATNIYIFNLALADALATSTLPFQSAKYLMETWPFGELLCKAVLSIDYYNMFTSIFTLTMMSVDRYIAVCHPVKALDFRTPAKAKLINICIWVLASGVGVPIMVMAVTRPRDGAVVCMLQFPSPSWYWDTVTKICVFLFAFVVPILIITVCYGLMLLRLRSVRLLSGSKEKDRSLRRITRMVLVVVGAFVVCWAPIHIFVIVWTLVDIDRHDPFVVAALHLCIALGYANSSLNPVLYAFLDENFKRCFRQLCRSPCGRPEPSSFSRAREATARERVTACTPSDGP
Sequence of mu opioid receptors (A0ACM8Q262 1-400): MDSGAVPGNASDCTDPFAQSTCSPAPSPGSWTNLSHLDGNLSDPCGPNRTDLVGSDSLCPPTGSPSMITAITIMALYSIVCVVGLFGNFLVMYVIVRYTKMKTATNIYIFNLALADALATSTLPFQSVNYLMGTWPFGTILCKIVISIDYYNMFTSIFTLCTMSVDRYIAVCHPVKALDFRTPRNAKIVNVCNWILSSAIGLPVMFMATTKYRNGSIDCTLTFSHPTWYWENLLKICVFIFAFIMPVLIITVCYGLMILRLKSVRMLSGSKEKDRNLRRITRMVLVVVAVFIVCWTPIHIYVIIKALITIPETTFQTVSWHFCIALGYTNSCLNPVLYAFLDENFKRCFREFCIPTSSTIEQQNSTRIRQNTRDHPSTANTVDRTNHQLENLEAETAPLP
T1 sequence (P32300 whole entry): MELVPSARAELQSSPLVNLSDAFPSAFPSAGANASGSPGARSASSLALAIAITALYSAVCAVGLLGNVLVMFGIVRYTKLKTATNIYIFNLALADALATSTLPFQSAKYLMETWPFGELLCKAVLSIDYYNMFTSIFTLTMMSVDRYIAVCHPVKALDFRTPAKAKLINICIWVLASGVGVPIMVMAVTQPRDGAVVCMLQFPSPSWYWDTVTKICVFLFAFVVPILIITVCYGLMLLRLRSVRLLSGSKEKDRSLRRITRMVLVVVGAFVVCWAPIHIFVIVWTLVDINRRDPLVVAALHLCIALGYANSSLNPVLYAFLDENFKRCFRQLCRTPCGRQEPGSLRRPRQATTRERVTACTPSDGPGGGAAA

3-O-Acetyl-7,8-dihydromorphine-6-O-sulfate [NIDA # 20,265]
IC50 [1]: > 10000 nM
IC50 [2, 11]: 37.7 ± 6.55 nM
Mouse Vas Deferens DR with Naltrindole [3]: 0.924 ± 0.64
IC50 [4, 12]: 1110 nM
Ki ([5]; read-out: Ki δ [^3H]Cl-DPDPE): 325 nM
Ki [6]: 13.7 nM
Guinea Pig Ileum DR with CTAP [7]: 6.03 ± 0.97
Guinea Pig Ileum Ke of CTAP [7]: 20.25 ± 3.92

CCCN1CCCC(c2cccc(O)c2)C1 (single isomer, unassigned; (+)) [(+) 3-PPP-HCl]
IC50 [1]: > 10000 nM
Ki [5, 13]: > 10000 nM
Ki [8]: 782 nM
Ki [6]: 3450 nM
Ki ([9]; read-out: Ki κ1 [^3H]U69,593): 388 nM

CC1C2Cc3ccc(O)cc3C1(C)CCN2CC1CC1 (single isomer, unassigned; (+)) [(+) Cyclazocine]
IC50 [1]: > 10000 nM
Ki [5, 13]: > 10000 nM
Ki [8]: 786 nM
Ki [6]: 659 nM
Ki ([9]; read-out: Ki κ1 [^3H]U69,593): 383 nM

C=CCN1CC[C@@]2(C)c3cc(O)ccc3CC1[C@@H]2C.Cl (single isomer, unassigned; (-)) [(−) SKF 10,047-HCl]
Guinea Pig Ileum DR with Nor-BNI [10]: 273.10
Guinea Pig Ileum Ke of Nor-BNI [10]: 0.08 ± 0.01
IC50 [1]: 132 nM
IC50 [2, 11]: 10.5 nM
Ki [5, 13]: 3.8 nM
Ki [6]: 0.7 nM
Ki ([9]; read-out: Ki κ1 [^3H]U69,593): 0.3 nM
Guinea Pig Ileum DR with CTAP [7]: 0.44 ± 0.02

CC[C@@]12CCN(CC3CC3)C(C(=O)c3ccc(O)cc31)[C@@H]2C (single isomer, unassigned; (-)) [(−)EKC]
IC50 [1]: 25.2 nM
IC50 [2, 14]: 0.15 nM
DR with Naltrindole [3]: 0.90
IC50 [4, 15]: 5.31 nM
Ki ([5]; read-out: Ki δ [^3H]Cl-DPDPE): 2 nM
Ki [8]: 3.9 nM
Ki [6]: 0.4 nM
DR with CTAP [7]: 0.62

CC(C)=CCN1CC[C@]2(C)c3cc(O)ccc3C[C@H]1[C@H]2C [(+) Pentazocine-succinate]
IC50 [1]: 5270 nM
Ki [5, 13]: 3480 nM
Ki [8]: 420 nM
Ki [6]: 595 nM
Ki ([9]; read-out: Ki κ1 [^3H]U69,593): 206 nM

C=CCN1CC[C@@]2(C)c3cc(O)ccc3C[C@@H]1[C@@H]2C [(+) SKF 10,047-HCl]
IC50 [1]: > 10000 nM
Ki [5, 13]: > 10000 nM
Ki [8]: > 1000 nM
Ki [6]: 2120 nM
Ki ([9]; read-out: Ki κ1 [^3H]U69,593): 2890 nM

O=C1/C(=C/c2ccccc2)C[C@@]2(O)[C@H]3Cc4ccc(O)c5c4[C@@]2(CCN3CC2CC2)[C@H]1O5 [BNTX]
IC50 [1]: 822 nM
Ki [6]: 1.9 nM
Ki ([9]; read-out: Ki κ1 [^3H]U69,593): 7.1 nM

CCC(=O)Oc1ccc2c3c1O[C@H]1[C@@H](OS(=O)(=O)O)C=C[C@H]4[C@@H](C2)N(C)CC[C@@]341 [NIDA # 20,270, 3-O-Propionylmorphine-6-O-sulfate]
Guinea Pig Ileum DR with Nor-BNI [10]: 1.26 ± 0.33
Guinea Pig Ileum Ke of Nor-BNI [10]: 40.73
Guinea Pig Ileum Ratio (Nor-BNI) [10]: 0.002
IC50 [1]: > 10000 nM
IC50 [2, 16]: 154 ± 48.6 nM
inhibition at 20 µM [4, 17]: 20%
Ki [5]: 40 nM
Ki [8]: 19.9 nM
Ki [9]: 252 nM
Guinea Pig Ileum Ke of CTAP [7]: 37.58 ± 2.09
Guinea Pig Ileum Ratio (CTAP) [7]: 0.515

CC(C)C(=O)Oc1ccc2c3c1O[C@H]1[C@@H](OS(=O)(=O)O)C=C[C@H]4[C@@H](C2)N(C)CC[C@@]341 [NIDA # 20,271, 3-O-Isobutyrylmorphine-6-O-sulfate]
Guinea Pig Ileum DR with Nor-BNI [10]: 1.38 ± 0.01
Guinea Pig Ileum Ke of Nor-BNI [10]: 53.14 ± 1.30
Guinea Pig Ileum Ratio (Nor-BNI) [10]: 0.001
IC50 [1]: > 10000 nM
IC50 [2, 16]: 1960 nM
inhibition at 100 µM [4, 17]: 38%
Ki [5]: 584 nM
Ki [8]: 266 nM
Ki [9]: 4560 nM
Guinea Pig Ileum DR with CTAP [7]: 9.45 ± 4.31
Guinea Pig Ileum Ke of CTAP [7]: 13.55 ± 6.89
Guinea Pig Ileum Ratio (CTAP) [7]: 1.427

Oc1ccc2c3c1O[C@H]1c4oc5ccccc5c4C[C@@]4(O)[C@@H](C2)N(CC2CC2)CC[C@]314 [NTB]
IC50 [1]: 406 nM
Ki ([5]; read-out: Ki δ [^3H]Cl-DPDPE): 0.06 nM
Ki [8]: 7.5 nM
Ki [6]: 6.5 nM
Ki ([9]; read-out: Ki κ1 [^3H]U69,593): 10.2 nM

Oc1ccc2c3c1O[C@H]1c4[nH]c5c(c4C[C@@]4(O)[C@@H](C2)N(CC2CC2)CC[C@]314)C[C@@]1(O)[C@H]2Cc3ccc(O)c4c3[C@@]1(CCN2CC1CC1)[C@H]5O4 [Nor-BNI (HCl)2, nor-binaltorphimine]
IC50 [1]: 37.5 nM
Ki [5]: 6.3 nM
Ki [8]: 15 nM
Ki ([9]; read-out: Ki κ1 [^3H]U69,593): 0.3 nM

c1ccc(C2(N3CCCCC3)CCCCC2)cc1 [PCP-HCl]
IC50 [1]: > 10000 nM
Ki [5, 13]: > 10000 nM
Ki [8]: > 10000 nM
Ki [6]: > 10000 nM
Ki ([9]; read-out: Ki κ1 [^3H]U69,593): > 10000 nM

c1csc(C2(N3CCCCC3)CCCCC2)c1 [TCP-HCl]
IC50 [1]: > 10000 nM
Ki [5, 13]: > 10000 nM
Ki [8]: > 10000 nM
Ki [6]: 2200 nM
Ki ([9]; read-out: Ki κ1 [^3H]U69,593): 2040 nM

CC[C@H](C)[C@H](NC(=O)[C@H](C)NC(=O)[C@H](CC(N)=O)NC(=O)[C@H](CCCCN)NC(=O)[C@H](Cc1ccccc1)NC(=O)[C@H](CC(C)C)NC(=O)[C@@H](NC(=O)[C@@H](NC(=O)[C@H](CC(C)C)NC(=O)[C@@H]1CCCN1C(=O)[C@@H](NC(=O)[C@H](CCC(N)=O)NC(=O)[C@H](CO)NC(=O)[C@H](CCCCN)NC(=O)[C@H](CCC(=O)O)NC(=O)[C@H](CO)NC(=O)[C@@H](NC(=O)[C@H](CCSC)NC(=O)[C@H](Cc1ccccc1)NC(=O)CNC(=O)CNC(=O)[C@@H](N)Cc1ccc(O)cc1)[C@@H](C)O)[C@@H](C)O)C(C)C)[C@@H](C)O)C(=O)N[C@H](C(=O)N[C@@H](CCCCN)C(=O)N[C@@H](CC(N)=O)C(=O)N[C@@H](C)C(=O)N[C@@H](Cc1ccc(O)cc1)C(=O)N[C@@H](CCCCN)C(=O)N[C@@H](CCCCN)C(=O)NCC(=O)N[C@@H](CCC(=O)O)C(=O)O)[C@@H](C)CC [β-Endorphin-OH]
Guinea Pig Ileum DR with Nor-BNI [10]: 4.24
Guinea Pig Ileum Ke of Nor-BNI [10]: 6.98
IC50 [1]: 2050 nM
IC50 [2, 11]: 59.4 nM
Mouse Vas Deferens DR with Naltrindole [3]: 7.98
Mouse Vas Deferens Ke of Naltrindole [3]: 0.156 ± 0.05
IC50 [4, 12]: 68 nM
Ki [8]: 14.5 nM
Guinea Pig Ileum DR with CTAP [7]: 5.86
Guinea Pig Ileum Ke of CTAP [7]: 20.87

(−) Pentazocine-succinate
Guinea Pig Ileum DR with Nor-BNI [10]: 6.10
Guinea Pig Ileum Ke of Nor-BNI [10]: 4.00 ± 0.8
IC50 [1]: 424 nM
IC50 [2, 11]: 170 nM
Ki [8]: 12.4 nM
Ki [6]: 5.7 nM
Ki ([9]; read-out: Ki κ1 [^3H]U69,593): 4.4 nM
Guinea Pig Ileum DR with CTAP [7]: 0.73 ± 0.38

Dynorphin (1-8)
DR with Nor-BNI [10]: 18.44
Ke of Nor-BNI [10]: 1.21
Ratio (after Ke of Nor-BNI) [10]: 0.050
IC50 [1]: 1760 nM
IC50 [2, 14]: 71.8 nM
DR with Naltrindole [3]: 2.77
Ke of Naltrindole [3]: 0.64
Ratio (after Ke of Naltrindole) [3]: 0.033
IC50 [4, 15]: 56.4 nM
Ki [8]: 12.9 nM
DR with CTAP [7]: 0.98

Leu-Enkephalin
Guinea Pig Ileum DR with Nor-BNI [10]: 1.94
Guinea Pig Ileum Ke of Nor-BNI [10]: 21.41
Guinea Pig Ileum Ratio (Nor-BNI) [10]: 0.002
IC50 [1]: > 10000 nM
IC50 [2, 11]: 87.3 nM
Mouse Vas Deferens DR with Naltrindole [3]: 28.07
Mouse Vas Deferens Ke of Naltrindole [3]: 0.038
Mouse Vas Deferens Ratio (Naltrindole) [3]: 0.577
IC50 [4, 12]: 7.38 nM
Ki [8]: 1670 nM
Guinea Pig Ileum DR with CTAP [7]: 4.63
Guinea Pig Ileum Ke of CTAP [7]: 29.38
Guinea Pig Ileum Ratio (CTAP) [7]: 0.659
